Test results from patent publication US8598118B2, “Hepatocyte growth factor mimics as therapeutic agents” (Washington State University, priority 2011, dated 2013).
Counter-ions that a name gives are not always drawn. Where a SMILES comes first, the peptide text is derived from it. [ ]: non-standard residue; d: D form. dNle = CCCC[C@@H](N)C(=O)O; Nle = CCCC[C@H](N)C(=O)O; Ahx = NCCCCCC(=O)O

What was measured:
[1] = molecular target: T1, c-Met receptor (Rattus norvegicus, UniProt P97523); test: Effect of c-Met knock-down (shMet) on spinogenesis in hippocampal neurons; type: cell-based; settings: neurons transfected with mRFP-β-actin alone; 10^−12 M, 48 hours
T1 construct: Dissociated hippocampal neurons were transfected with mRFP-β-actin and shMet RNA; endogenous in cells; host or cells: dissociated hippocampal neurons from P1-2 Sprague Dawley rats
T1 sequence (P17945 33-495 partner limits assumed): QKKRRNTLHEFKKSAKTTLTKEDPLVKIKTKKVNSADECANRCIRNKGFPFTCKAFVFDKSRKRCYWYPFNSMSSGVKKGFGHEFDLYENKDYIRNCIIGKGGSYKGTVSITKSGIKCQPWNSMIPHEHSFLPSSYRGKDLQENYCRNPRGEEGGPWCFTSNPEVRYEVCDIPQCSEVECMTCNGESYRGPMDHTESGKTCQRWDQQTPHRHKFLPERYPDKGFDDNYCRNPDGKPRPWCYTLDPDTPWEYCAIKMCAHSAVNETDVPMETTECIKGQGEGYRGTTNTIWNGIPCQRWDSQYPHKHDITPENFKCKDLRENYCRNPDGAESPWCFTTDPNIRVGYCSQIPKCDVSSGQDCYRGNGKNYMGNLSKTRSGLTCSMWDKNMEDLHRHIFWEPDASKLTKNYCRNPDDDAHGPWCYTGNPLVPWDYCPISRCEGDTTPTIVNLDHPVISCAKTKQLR
T1 sequence (P17945 496-728 partner limits assumed): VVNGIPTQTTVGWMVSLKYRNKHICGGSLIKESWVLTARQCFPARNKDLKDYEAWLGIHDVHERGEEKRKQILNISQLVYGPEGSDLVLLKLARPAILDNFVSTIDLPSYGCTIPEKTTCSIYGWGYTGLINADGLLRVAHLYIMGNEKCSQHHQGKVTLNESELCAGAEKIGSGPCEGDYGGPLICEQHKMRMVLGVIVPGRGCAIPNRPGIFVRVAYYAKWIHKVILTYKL
T1 sequence (P97523 25-1382): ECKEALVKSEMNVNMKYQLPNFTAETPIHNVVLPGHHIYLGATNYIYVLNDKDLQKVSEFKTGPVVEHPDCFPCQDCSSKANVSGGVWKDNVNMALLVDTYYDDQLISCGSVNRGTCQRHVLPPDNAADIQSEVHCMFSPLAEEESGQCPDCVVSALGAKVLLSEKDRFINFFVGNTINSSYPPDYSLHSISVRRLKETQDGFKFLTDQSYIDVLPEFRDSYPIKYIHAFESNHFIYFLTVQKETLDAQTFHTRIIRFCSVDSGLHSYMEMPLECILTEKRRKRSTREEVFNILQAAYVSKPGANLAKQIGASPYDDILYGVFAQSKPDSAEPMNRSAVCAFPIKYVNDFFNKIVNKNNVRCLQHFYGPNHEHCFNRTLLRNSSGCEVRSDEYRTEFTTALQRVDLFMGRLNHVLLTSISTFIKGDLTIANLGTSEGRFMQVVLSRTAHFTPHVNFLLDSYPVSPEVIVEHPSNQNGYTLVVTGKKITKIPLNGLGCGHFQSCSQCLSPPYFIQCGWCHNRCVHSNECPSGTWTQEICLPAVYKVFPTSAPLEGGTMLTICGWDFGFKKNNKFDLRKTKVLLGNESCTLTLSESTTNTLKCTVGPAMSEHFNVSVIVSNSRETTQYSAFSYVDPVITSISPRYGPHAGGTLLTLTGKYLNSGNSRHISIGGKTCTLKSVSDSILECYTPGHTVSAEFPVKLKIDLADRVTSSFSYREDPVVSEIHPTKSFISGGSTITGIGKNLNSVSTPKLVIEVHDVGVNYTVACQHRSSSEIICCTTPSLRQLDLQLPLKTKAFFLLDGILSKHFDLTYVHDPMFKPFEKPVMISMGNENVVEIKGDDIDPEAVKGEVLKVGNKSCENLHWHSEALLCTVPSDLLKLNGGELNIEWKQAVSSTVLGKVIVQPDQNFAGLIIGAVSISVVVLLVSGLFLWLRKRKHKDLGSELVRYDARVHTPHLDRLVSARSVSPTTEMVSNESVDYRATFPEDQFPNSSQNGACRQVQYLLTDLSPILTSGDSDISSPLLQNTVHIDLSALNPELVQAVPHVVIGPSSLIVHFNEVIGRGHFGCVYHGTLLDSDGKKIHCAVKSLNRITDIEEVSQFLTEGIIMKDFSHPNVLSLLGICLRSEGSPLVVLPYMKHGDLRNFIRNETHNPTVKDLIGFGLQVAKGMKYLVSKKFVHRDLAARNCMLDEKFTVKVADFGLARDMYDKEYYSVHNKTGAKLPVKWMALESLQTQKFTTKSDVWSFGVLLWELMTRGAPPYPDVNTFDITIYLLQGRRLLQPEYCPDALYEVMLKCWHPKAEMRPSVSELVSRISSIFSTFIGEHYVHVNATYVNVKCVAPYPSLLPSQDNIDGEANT
Source text: (§1) Neurons were transfected with mRFP-β-actin on day in vitro 6 (DIV6) using LipofectAMINE™ 2000 (Invitrogen) according to the manufacturer's protocol. This protocol yielded the desired 3-5% transfection efficiency thus enabling the visualization of individual neurons. Higher efficiencies obscured the dendritic arbor of individual neurons. Expression of fluorescently tagged actin allowed clear visualization of dendritic spines, as dendritic spines are enriched in actin. On DIV7 the cells were treated with vehicle (H20) or peptides (as described in the text) added to media. On DIV 12 the neurons were fixed (4% paraformaldehyde, 3% sucrose, 60 mM PIPES, 25 mM HEPES, 5 mM EGTA, 1 mM MgCl2, pH 7.4) for 20 min at room temperature and mounted. Slides were dried for at least 20 hours at 4° C. and fluorescent images were obtained with Slidebook 4.2 Digital Microscopy Software driving an Olympus IX81 inverted confocal microscope with a 60× oil immersion lens, NA 1.4 and resolution 0.280 μm Dendritic spine density was measured on primary and secondary dendrites at a distance of at least 150 μm from the soma. Five 50 μm long segments of dendrite from at least 10 neurons per data point were analyzed for each data point reported. Each experiment was repeated at least three times using independent culture preparations. Dendrite length was determined using the National Institutes of Health's Image J 1.41o program (NIH, Bethesda, Md.) and the neurite tracing program Neuron J (Meijering, Jacob et al. 2004) Spines were manually counted.
A target sequence for c-Met was designed using RNAi central design program (see the website located at cancan.cshl.edu/). […]. The shRNA was transfected into cells using the lipofectamine method described above. Verification of receptor knockdown was done by creating a c-Met-6-Myc tagged gene product using the Gateway cloning system (Invitrogen). […]

[2] = system: hippocampal neurons; test: Spinogenesis in mRFP-β-actin transfected dissociated hippocampal neurons; type: cell-based, rat
Description: (§2) Hippocampal neurons (2×10^5 cells per square cm) were cultured from P1 Sprague Dawley rats on plates coated with poly-L-lysine from Sigma (St. Louis, Mo.; molecular weight 300,000). Hippocampal neurons were maintained in Neurobasal A media from Invitrogen (Carlsbad, Calif.) supplemented with B27 from Invitrogen, 0.5 mM L-glutamine, and […] cytosine-D-arabinofuranoside from Sigma added at 2 days in vitro. Hippocampal neurons were then cultured a further 3-7 days, at which time they were either transfected or treated with various pharmacological reagents as described in (Wayman, Davare et al. 2008).
as §1
as §2, with “centimeter)” for “cm)”, “P1-2” for “P1”, “the text or figure legends.” for “(Wayman, Davare et al. 2008).”

[3] = system: CA1 hippocampal neurons; test: Spinogenesis in organotypic hippocampal slice cultures; type: cell-based, rat; settings: 10^−12 M, 2 days, organotypic slices
Description: (§3) Hippocampi from P4 Sprague Dawley rats were cultured as previously described (Wayman, Impey et al. 2006). Briefly, 400 μm slices were cultured on (Milipore, Billerica, Mass.) for 3 days after which they were biolistically transfected with tomato fluorescent protein (TFP) using a Helios Gen Gun (BioRad, Hercules, Calif.), according to the manufacturer's protocol, to visualize dendritic arbors. Following a 24 hour recovery period slices were stimulated with vehicle (H2O), 1 pM Nle1-AngIV or Dihexa for 2 days. Slices were fixed and mounted. Hippocampal CA1 neuronal processes were imaged and measured as described above.
as §3, with “Gene” for “Gen”, “with” for “with vehicle (H2O),”

[4] = system: hippocampal neurons; test: Whole-cell recordings of AMPA-mediated mEPSCs; type: cell-based, rat
[5] = system: Male Sprague-Dawley rats; test: Morris water maze with the HGF antagonist Hinge (Example 2)
Description: Male Sprague-Dawley rats (Taconic derived) weighing 390-450 g were maintained with free access to water and food (Harland Tekland F6 rodent diet, Madison, Wis.) except the night prior to surgery when food was removed. Each animal was anesthetized with Ketamine hydrochloride plus Xylazine (100 and 2 mg/kg im. respectively; Phoenix Scientific; St. Joseph, Mo., and Moby; Shawnee, Kans.). […] The guide cannula measured 2.5 cm in overall length and was prepared with a heat bulge placed 2.5 mm from its beveled tip, thus acting as a stop to control the depth of penetration. Once in position, the cannula was secured to the skull with two stainless-steel screws and dental cement. […]
A black circular platform (diameter: 12 cm; height: 24 cm) was placed 30 cm from the wall and submerged 2 cm below the water surface. […] The swimming path of the animals was recorded using a computerized video tracking system (Chromotrack; San Diego Instruments, CA). […] Swim speed was determined from these values. […]
Morris water maze data set mean latencies to find the platform during each daily block of five trials were calculated for each animal for each day of acquisition. […] Significant effects were analyzed by Newman-Keuls post-hoc test with a level of significance set at P<0.05.

[6] = system: MDCK cells; test: Inhibition of HGF-dependent scattering in MDCK cells; type: cell-based, canine; settings: for inhibition of HGF-dependent MDCK cell scattering: 20 ng/ml HGF, 48 h
Description: (§4) MDCK cells were grown to 100% confluency on the coverslips in six-well plates and washed twice with PBS. The confluent coverslips were then aseptically transferred to new six well plates containing 900 μl serum free DMEM. Norleual, Hinge peptide, and/or HGF (20 ng/ml) were added to appropriate wells. Control wells received PBS vehicle. Plates were incubated at 37° C. with 5% CO2 for 48 hours. Media was removed and cells were fixed with methanol. Cells were stained with Diff-Quik Wright-Giemsa (Dade-Behring, Newark, Del.) and digital images were taken. Coverslips were removed with forceps and more digital images were captured. Pixel quantification of images was achieved using Image J and statistics were performed using Prism 5 and InStat v.3.05.
as §4, with “h.” for “hours.”, “v.3.05 (GraphPad; San Diego, Calif.).” for “v.3.05.”

[7] = system: Met; test: Inhibition of HGF-dependent Met phosphorylation in HEK293 cells; type: cell-based, human; settings: 10 min
Description: HEK293 cells were seeded in 6 well tissue culture plates and grown to 95% confluency in DMEM containing 10% FBS. The cells were serum deprived for 24 h prior to the treatment to reduce the basal levels of phospho-Met. Following serum starvation, cocktails comprised of vehicle and HGF with/without 6-AH analogs were prepared and pre-incubated for 30 min at room temperature. The cocktail was then added to the cells for 10 min to stimulate the Met receptor and downstream proteins. Cells were harvested using RIPA lysis buffer (Millipore; Billerica, Mass.) fortified with phosphatase inhibitor cocktails 1 and 2 (Sigma-Aldrich; St. Louis, Mo.). The lysate was clarified by centrifugation at 15,000 nx g for 15 min, protein concentrations were determined using the BCA total protein assay (Pierce), and then appropriate volumes of the lysates were diluted with 2× reducing Laemmli buffer and heated for ten min at 95° C. Samples containing identical amounts of protein were resolved using SDS-PAGE (Criterion, BioRad Laboratories), transferred to nitrocellulose, and blocked in Tris-buffered saline (TBS) containing 5% milk for 1 h at room temperature. The phospho-Met antibody were added to the blocking buffer at a final concentration of 1:1000 and incubated at 4° C. overnight with gentle agitation. The membranes were then washed several times with water and TBS ([…], 0.05% Tween-20), a 1:5000 dilution of horseradish-peroxidase conjugated goat anti-rabbit antiserum was added, and the membranes further incubated for 1 h at room temperature. Proteins were visualized using the Supersignal West Pico Chemiluminescent Substrate system (Pierce, Fenton, Mo.) and molecular weights determined by comparison to protein ladders (BenchMark, Invitrogen, and Kaleidoscope, BioRad). Film images were digitized and analyzed using a UVP phosphoimager.

[8] = system: MDCK cells; test: HGF-dependent MDCK cell proliferation (MTT); type: cell-based, canine; settings: analog 10^−10M, 4 days
Description: 5000 MDCK cells were seeded into the wells of a 96 well plates in 10% FBS DMEM. To induce cellular quiescence, the cells were serum deprived for 24 h prior to initiating the treatments. Following serum starvation, 10 ng/ml HGF alone and with various concentrations of 6-AH analogs or PBS vehicle were added to the media. The cells were allowed to grow under these conditions for 4 days with a daily addition of 6-AH analogs. On the fourth day, 1 mg/ml of […] (MTT, Sigma-Aldrich) prepared in PBS was added to the cells and incubated for 4 h. Dimethyl sulfoxide diluted in a 0.01M glycine buffer was added to solubilize the cell membranes and the absorbance of reduced MTT in the buffer was quantitated at 590 nm using a plate reader (Biotek Synergy 2, Winooski, Vt.). HGF-dependent proliferation was determined by subtracting the basal proliferation (in the absence of HGF) from total proliferation rates in groups containing HGF.

**Q.** Which results are given for `CCCC[C@H](N)C(=O)N[C@@H](Cc1ccc(O)cc1)C(=O)N[C@H](C(=O)N[C@@H](Cc1c[nH]cn1)C(=O)N1CCC[C@H]1C(=O)N[C@@H](Cc1ccccc1)C(=O)O)[C@@H](C)CC` [Nle1-AngIV, reference compound] (H-[Nle]YIHPF-OH; N-terminus and C-terminus assumed)?
**A.** mean spine numbers per 50 μm dendrite length [1]: 20.0; fold increase in the number of spines ([2]; 10^−12 M, 5 day treatment, vs vehicle): greater than 2 fold; spines per 50 μm dendrite length, CA1 neurons [3]: 11 spines per 50 μm dendrite length; fold increase over control mEPSC frequency ([4]; 10-12 M, 5 days): 1.7 fold; mean frequency of AMPA-mediated mEPSCs ([4]; 10-12 M, 5 days (Example 1)): 5.27 Hz

**Q.** How did the “mean latency to find the pedestal, final day of training (day 8)” value ([5]; scopolamine icv pretreated rats, agents 300 pmol icv) turn out when `CN1[C@@H]2C[C@@H](OC(=O)[C@H](CO)c3ccccc3)C[C@H]1[C@@H]1O[C@@H]12` [scopolamine, scopolamine hydrobromide] was run?
**A.** The value was 84.8 s.

**Q.** What does the source list for `CCCC[C@@H](N)C(=O)N[C@@H](Cc1c[nH]c2ccccc12)C(=O)N[C@H](C(=O)NCCCCCC(N)=O)[C@@H](C)CC` [D-Nle-Trp-Ile-NH—(CH2)5—CONH2] (H-[dNle]WI[Ahx]-NH2)?
**A.** inhibition of HGF-dependent MDCK cell scattering [6]: different from the HGF alone group but not different from the control group; inhibition of HGF-dependent Met auto-phosphorylation [7]: intermediate inhibitory activity; inhibition of HGF-dependent MDCK cell proliferation [8]: inhibitory activity, albeit less than that observed with the most potent analogs

**Q.** “DYIRNC (Synthetic hinge peptide) [novel HGF antagonist; peptide representing the dimerization domain (hinge region) of HGF, reference compound]” was tested. Which “inhibition of scattering of MDCK cells” value ([6]; Hinge) did it give?
**A.** Its value is “inhibit scattering”.

**Q.** What about the “effect on basal spinogenesis” value ([2]; Hinge alone, wide range of doses) of the same molecule?
**A.** The value was “no effect on spinogenesis”.

**Q.** What about the “inhibition of stimulated spine formation” value ([2]; neurons stimulated with 10 ng/ml HGF, 10^−12 M Nle1-AngIV or 10^−12 M Dihexa) of the same molecule?
**A.** The value was “effectively inhibit spine formation”.

**Q.** What about the “mean latency to find the pedestal, final day of training (day 8)” value ([5]; aCSF followed by Hinge (no scopolamine), icv) of the same molecule?
**A.** Its value is 46.1 s.

**Q.** And the “mean frequency of mEPSCs” value ([4]; 10^−12 M, 5 days (Example 2))?
**A.** Its value is 4.51±0.47.

**Q.** Which results are given for `CCCC[C@@H](N)C(=O)N[C@@H](CCSC)C(=O)N[C@H](C(=O)NCCCCCC(N)=O)[C@@H](C)CC` [D-Nle-Met-Ile-NH—(CH2)5—CONH2] (H-[dNle]MI[Ahx]-NH2)?
**A.** inhibition of HGF-dependent MDCK cell scattering [6]: not different; inhibition of HGF-dependent Met auto-phosphorylation [7]: no ability to effect on Met activation
